The values that follow come from US10118902B2 (Sanford Burnham Prebys Medical Discovery Institute, priority 2014, dated 2018).

The target of this experiment is neurotensin receptor 1 (NTR1) (Homo sapiens (Human), UniProt P30989). Nature of the experiment: NTR1 dose response, high-content imaging beta-arrestin-GFP assay in NTR1-U2OS cells. Format: cell-based. On the set-up: scale not given here. The text has this:
The cell lines utilized in the high-content imaging assays, which include the NTR1-, NTR2-, and GPR35-U2OS osteosarcomas, were obtained from the laboratory of Dr. Lawrence Barak at the Duke University Medical Center. The media used in the culture of the cell lines, as well as the assays themselves, consisted of Minimum Essential Medium (15-010-CM) and L-glutamine (25-005-CL) from Cellgro/Mediatech (Manassas, Va.), fetal bovine serum (SH30396.03) from Hyclone (Logan, Utah), penicillin-streptomycin solution (PS-20) from Omega Scientific in Tarzana, Calif., G418 (ant-gn-1) from Invivogen (San Diego, Calif.), and zeocin (R250-01) from Invitrogen (Carlsbad, Calif.). Cell lines were cultured in T225 tissue culture flasks (431082) supplied by Corning (Corning, N.Y.). Additional reagents employed include Dulbecco's Phosphate-Buffered Saline (DPBS) (21-031CV) from Cellgro/Mediatech, Trypsin-EDTA 0.05% (25300) from Invitrogen, paraformaldehyde (30528954) from Acros Organics (Geel, Belgium), Hoechst 33342 (H3570) from Invitrogen. The high-content assays were run in 1536-well plates (29326) supplied by Aurora Biotechnology (Poway, Calif.) and utilized aluminum plate seals (T592100) from E&K Scientific (Santa Clara, Calif.). […]
The high-content imaging based NTR1 primary screen in 1536-well format was utilized to assay the MLSMR library of chemical entities in the following manner. On day one, 4 uL of a cell suspension containing 350,000 NTR1-U2OS cells per mL is added to each well of a 1536-well assay plate. Cells are plated in MEM medium containing 2.5% Fetal Bovine Serum, 1% Penicillin/Streptomycin solution, 1% L-Glutamine, 400 ug/mL G418, and 200 ug/mL Zeocin. The assay plates are then incubated overnight at 37° C., under 5% CO2. Following the overnight incubation, a volume of 60 nL of the compounds at 2 mM in DMSO (final 20 μM, 1% DMSO) was transferred to columns 5-48 of the assay plates using a LabCyte Echo Liquid Handler. Next, 60 nL of DMSO were dispensed to columns 1-4, which served as the positive and neutral control wells. […] The assay plates were centrifuged on an Eppendorf 5810 centrifuge at 1000 rpm for 1 min to ensure even liquid levels in the wells of the assay plates. The assay plates were then returned to the incubator for 1 hour. Following the hour-long incubation at 37° C., the cells in each well were fixed with 4 uL of 6% paraformaldehyde added with a Multidrop Combi. The assay plates were centrifuged as before and incubated at room temperature for 1 hour. On the Kalypsys, plates were then aspirated down to 2.5 uL per well and washed twice with 11 uL per well of DPBS, followed by a final aspiration to 2.5 uL per well. On the Combi dispenser, 5 uL of 5 ug/mL Hoechst 33342 diluted in DPBS was added to each well of assay plates. The plates were again centrifuged as previously described, sealed, and incubated for at least 1 hour prior to being loaded on a PerkinElmer Opera QEHS.
Image acquisition was performed with a 45 plate capacity loader/stacker and the following settings: 40×0.6 NA air objective, acquisition camera set to 2-by-2 binning for an image size of 688 by 512 pixels, beta-arrestin-GFP acquired using 488 nm laser excitation and 540/75 nm emission filters, DAPI (nuclei) using 365 nm Xenon lamp excitation and 450/50 nm emission filters, 3 fields per well. Image analysis was performed using the Acapella Spot Detection Algorithm. For analysis settings and the metrics employed in the data analyses, please refer to supplemental information.
Compounds that were successfully confirmed in quadruplicate at 20 uM were then run in dose response in the primary assay. As with the single concentration hit confirmation, the assay was performed in an identical manner as the primary screen with the following modifications. […]

Structures are written as SMILES. Read-outs that look alike come from different tables or passages of the source. A value given as a limit tells only on which side of the number the result lay.

Sequence of neurotensin receptor 1 (NTR1) (P30989 whole entry, species assumed): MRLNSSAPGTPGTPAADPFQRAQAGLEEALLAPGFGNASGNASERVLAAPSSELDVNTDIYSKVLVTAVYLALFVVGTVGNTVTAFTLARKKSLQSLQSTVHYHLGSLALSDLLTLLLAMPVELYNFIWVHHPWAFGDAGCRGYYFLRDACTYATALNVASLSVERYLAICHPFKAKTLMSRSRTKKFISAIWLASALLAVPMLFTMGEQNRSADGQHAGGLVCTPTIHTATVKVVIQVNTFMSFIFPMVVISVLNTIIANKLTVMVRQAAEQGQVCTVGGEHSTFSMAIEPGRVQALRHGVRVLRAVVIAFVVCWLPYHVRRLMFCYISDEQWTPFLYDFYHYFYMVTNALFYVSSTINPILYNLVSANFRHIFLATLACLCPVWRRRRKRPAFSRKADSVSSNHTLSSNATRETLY

For the compound `CCCN(C)c1cc2c(N3CCC(c4ccccc4OC)CC3)nc(C3CC3)nc2cc1Cl` [Example 104, {7-chloro-2-cyclopropyl-4-[4-(2-methoxy-phenyl)-piperidin-1-yl]-quinazolin-6-yl}-methyl-propyl-amine], the EC50 (read-out: EC50) is > 10 µM. With `COc1ccccc1C1CCN(c2nc(C#CC3CC3)nc3ccc(N(C)CCO)cc23)CC1` [Example 191, 2-({2-Cyclopropylethynyl-4-[4-(2-methoxy-phenyl)-piperidin-1-yl]-quinazolin-6-yl}-methyl-amino)-ethanol], where the note is “read-out: EC50”, the EC50 is 2 to 10 µM. As to `COc1ccccc1C1CCN(c2nc(C3CCC3)nc3ccc(N(C)C)cc23)CC1` [Example 42, {2-cyclobutyl-4-[4-(2-methoxy-phenyl)-piperidin-1-yl]-quinazolin-6-yl}-dimethyl-amine], the EC50 entry is “C or D”. As to `COc1ccccc1C1CCN(c2nc(C3CC3)nc3ccc(N4CCC(N(C)C)CC4)cc23)CC1` [Example 78, (1-{2-cyclopropyl-4-[4-(2-methoxy-phenyl)-piperidin-1-yl]-quinazolin-6-yl}-piperidin-4-yl)-dimethyl-amine], the EC50 (read-out: EC50) was > 10 µM. Regarding `COCCN(C)c1ccc2nc(C3CCC3)nc(N3CCC(c4ccccc4OC)CC3)c2c1` [Example 44], the EC50 (read-out: EC50) fell in the range of 2 to 10 µM. Same read-out and setting: the figure for `COc1ccccc1C1CCN(c2nc(C3(F)CC3)nc3cc(F)c(N(C)CCO)cc23)CC1` [Example 171] is < 0.5 µM.

As to `COc1ccc(F)cc1C1CCN(c2nc(C3CC3)nc3cc(F)c(N(C)CCO)cc23)CC1` [Example 111, 2-({2-cyclopropyl-7-fluoro-4-[4-(5-fluoro-2-methoxy-phenyl)-piperidin-1-yl]-quinazolin-6-yl}-methyl-amino)-ethanol], under “read-out: EC50”, the 50% effective concentration (EC50) was 0.5 to 2 µM. On the same count and under the same terms, the figure for `COc1ccccc1C1CCN(c2nc(C)c(CC(=O)N(C)CCO)c(C3CC3)n2)CC1` [Example 163, 2-{4-cyclopropyl-2-[4-(2-methoxy-phenyl)-piperidin-1-yl]-6-methyl-pyrimidin-5-yl}-N-(2-hydroxy-ethyl)-N-methyl-acetamide] is > 10 µM; for `CCCN(C)c1ccc2nc(C3CC3)nc(NC3CCCC3N(C)c3ccccc3OC)c2c1` (centres unmarked) [Example 152, 2-cyclopropyl-N4-{2-[(2-methoxy-phenyl)-methyl-amino]-cyclopentyl}-N6-methyl-N6-propyl-quinazoline-4,6-diamine] it is > 10 µM; for `COc1ccccc1C1CCN(c2nc(C3(F)CC3)nc3ccc(N4CC[C@H](O)C4)cc23)CC1` [Example 177, (S)-1-{2-(1-Fluoro-cyclopropyl)-4-[4-(2-methoxy-phenyl)-piperidin-1-yl]-quinazolin-6-yl}-pyrrolidin-3-ol] it is 0.5 to 2 µM. Regarding `COc1cccnc1C1CCN(c2nc(C3(F)CC3)nc3c(F)cc(N(C)CCO)cc23)CC1` [Example 216, 2-{[8-Fluoro-2-(1-fluoro-cyclopropyl)-4-(3-methoxy-3′,4′,5′,6′-tetrahydro-2′H-[2,4′]bipyridinyl-1′-yl)-quinazolin-6-yl]-methyl-amino}-ethanol], the EC50 (read-out: EC50) was 2 to 10 µM.

Consider `CN(C)c1ccccc1C1CCN(c2nc(C3CC3)nc3ccc(N(C)CCO)cc23)CC1` [Example 10, 2-({2-cyclopropyl-4-[4-(2-dimethylamino-phenyl)-piperidin-1-yl]-quinazolin-6-yl}-methyl-amino)-ethanol], for which the EC50 (read-out: EC50) fell in the range of 2 to 10 µM.

As for `COc1ccccc1C1CCN(c2nc(C3(F)CCC3)nc3c(Cl)cc(N4CC[C@H](O)C4)cc23)CC1` [Example 183], the EC50 (read-out: EC50) is 2 to 10 µM.

As for `CN(C)c1ccccc1C1CCN(c2nc(C3(C(F)(F)F)CCC3)nc3ccc(N(C)CCN4CCOCC4)cc23)CC1` [Example 66, [4-[4-(2-dimethylamino-phenyl)-piperidin-1-yl]-2-(1-trifluoromethyl-cyclobutyl)-quinazolin-6-yl]-methyl-(2-morpholin-4-yl-ethyl)-amine], the concentration for a half-maximal effect (EC50) (read-out: EC50) was > 10 µM. The same measure, in the same setting: the figure for `CN(C)c1ccccc1C1CCN(c2nc(C3(C(F)(F)F)CC3)nc3ccc(N(C)CCN4CCOCC4)cc23)CC1` [Example 50, [4-[4-(2-dimethylamino-phenyl)-piperidin-1-yl]-2-(1-trifluoromethyl-cyclopropyl)-quinazolin-6-yl]-methyl-(2-morpholin-4-yl-ethyl)-amine] is > 10 µM.

As for `COc1cccnc1N1CCN(c2nc(C3(F)CC3)nc3c(F)cc(N(C)CCO)cc23)CC1` [Example 215, 2-({8-Fluoro-2-(1-fluoro-cyclopropyl)-4-[4-(3-methoxy-pyridin-2-yl)-piperazin-1-yl]-quinazolin-6-yl}-methyl-amino)-ethanol], for the setting “read-out: EC50”, the EC50 is 0.5 to 2 µM.

In the case of `COc1ccccc1C1CCN(c2nc(C3(F)CC3)nc3ccc(N(C)CCN4CCOCC4)cc23)CC1` [Example 17, {2-(1-fluoro-cyclopropyl)-4-[4-(2-methoxy-phenyl)-piperidin-1-yl]-quinazolin-6-yl}-methyl-(2-morpholin-4-yl-ethyl)-amine], the EC50 (read-out: EC50) was in the range of 0.5 to 2 µM.

As for `COc1ccccc1C1CCN(c2nc(C3CC3)nc3ccc(N4CCC(O)C4)cc23)CC1` (centres unmarked) [Example 79, 1-{2-cyclopropyl-4-[4-(2-methoxy-phenyl)-piperidin-1-yl]-quinazolin-6-yl}-pyrrolidin-3-ol], the EC50 (read-out: EC50) was 0.5 to 2 µM. Same read-out and setting: next, `COc1ccccc1C1CCN(c2nc(C3(F)CC3)nc3ccc(N(C)C)cc23)CC1` [Example 18, {2-(1-fluoro-cyclopropyl)-4-[4-(2-methoxy-phenyl)-piperidin-1-yl]-quinazolin-6-yl}-dimethyl-amine]: 0.5 to 2 µM; `CCCN(C)c1cc2c(N3CCC(c4ccccc4OC)CC3)nc(C3CC3)nc2cc1C` [Example 122, {2-cyclopropyl-4-[4-(2-methoxy-phenyl)-piperidin-1-yl]-7-methyl-quinazolin-6-yl}-methyl-propyl-amine]: 0.5 to 2 µM; `COc1cccnc1C1CCN(c2nc(C3(F)CC3)nc3ccc(N(C)CCO)cc23)CC1` [Example 206, 2-{[2-(1-Fluoro-cyclopropyl)-4-(3-methoxy-3′,4′,5′,6′-tetrahydro-2′H-[2,4′]bipyridinyl-1′-yl)-quinazolin-6-yl]-methyl-amino}-ethanol]: 0.5 to 2 µM. The same measure, in the same setting: next, `CN(C)c1ccccc1C1CCN(c2nc(C3(C(F)(F)F)CCC3)nc3ccc(N(C)CCO)cc23)CC1` [Example 65, 2-{[4-[4-(2-Dimethylamino-phenyl)-piperidin-1-yl]-2-(1-trifluoromethyl-cyclobutyl)-quinazolin-6-yl]-methyl-amino}-ethanol]: 2 to 10 µM. Consider `COc1ccccc1C1CCN(c2nc(C3(F)CC3)nc3cnc(N(C)CCO)cc23)CC1` [Example 195, 2-({2-(1-Fluoro-cyclopropyl)-4-[4-(2-methoxy-phenyl)-piperidin-1-yl]-pyrido[3,4-d]pyrimidin-6-yl}-methyl-amino)-ethanol], for which, under “read-out: EC50”, the EC50 was < 0.5 µM.

For the compound `COc1ccc(F)cc1C1CCN(c2nc(C3CC3)nc3ccc(N(C)CCO)cc23)CC1` [Example 109, 2-({2-cyclopropyl-4-[4-(5-fluoro-2-methoxy-phenyl)-piperidin-1-yl]-quinazolin-6-yl}-methyl-amino)-ethanol], under “read-out: EC50”, the EC50 was 0.5 to 2 µM. Take `COc1ccccc1C1CCN(c2nc(C3CC3)nc3ccc(N4CC[C@H](OC)C4)cc23)CC1` [Example 84, (S)-2-cyclopropyl-4-(4-(2-methoxyphenyl)piperidin-1-yl)-6-(3-methoxypyrrolidin-1-yl)quinazoline]: for the setting “read-out: EC50”, the EC50 lay within 0.5 to 2 µM.

For the compound `COCCN(C)c1ccc2nc(C3(C)CC3)nc(N3CCC(c4ccccc4OC)CC3)c2c1` [Example 33, N-(2-methoxyethyl)-4-(4-(2-methoxyphenyl)piperidin-1-yl)-N-methyl-2-(1-methylcyclopropyl)quinazolin-6-amine], the concentration giving a half-maximal response (EC50) (read-out: EC50) fell in the range of 2 to 10 µM.

The term EC50 denotes the concentration at which the effect is half-maximal.
